Values after ≈ are worked out from the molar mass of the structure shown. Read-outs that look alike come from different tables or passages of the source. Positions of bridges follow the written chain, without caps; N, C: chain ends. Non-standard residues stand in square brackets, D forms with d. Residues, ends and D or L forms follow the SMILES beside them. d(aIle) = CC[C@H](C)[C@@H](N)C(=O)O; dNMeF = CN[C@H](Cc1ccccc1)C(=O)O
Columns and labels:
[1] = tested on: Streptococcus salivarius ATCC 13419; type: cell-based
[2] = tested on: Staphylococcus epidermidis ATCC 14990; type: cell-based
[3] = tested on: four gram-positive bacteria; test: MIC assays, summary over the four gram-positive bacteria; type: cell-based; conditions: for MIC against the gram-positive bacteria studied: four gram-positive bacteria of Table 1
gram-positive bacteria = conditions: MIC assays; cited from earlier work
[4] = tested on: Escherichia coli ATCC 10798; type: cell-based
[5] = tested on: Enterococcus durans ATCC 6056; type: cell-based
[6] = tested on: Bacillus subtilis ATCC 6051; test: microbe, parasite or virus in culture; type: cell-based
various Streptococcus = conditions: cited from earlier work
E. coli = conditions: cited from earlier work
[7] = Streptococcus salivarius ATCC 13419, homologues as TFA salts
[8] = Staphylococcus epidermidis ATCC 14990, homologues as TFA salts
[9] = Enterococcus durans ATCC 6056, homologues as TFA salts
[10] = Bacillus subtilis ATCC 6051, homologues as TFA salts

Compound | MIC ([1]; ATCC 13419) | MIC ([2]; ATCC 14990) | MIC against the gram-positive bacteria studied [3] | MIC [4] | MIC ([5]; ATCC 6056) | MIC ([6]; ATCC 6051) | MIC [1, 7] | MIC [2, 8] | MIC [5, 9] | MIC [6, 10] | further results
CC[C@H](C)[C@H](NC(=O)[C@@H](Cc1ccccc1)NC)C(=O)N[C@@H](CO)C(=O)N[C@H](CCC(N)=O)C(=O)N[C@@H](C(=O)N[C@H](C(=O)N[C@@H](CO)C(=O)N[C@H]1C(=O)N[C@@H](C)C(=O)N[C@@H](CCCNC(=N)N)C(=O)N[C@@H]([C@@H](C)CC)C(=O)O[C@H]1C)[C@@H](C)CC)[C@@H](C)CC [Arg10-teixobactin] | 1 µg/mL (≈ 0.804 µM) | 1 µg/mL (≈ 0.804 µM) | 1 to 4 µg/mL | >32 µg/mL | 4 µg/mL (≈ 3.21 µM) | 2 µg/mL (≈ 1.61 µM) | – | – | – | – | activity relative to teixobactin ([3]; comparison of own MIC with original published values in related bacteria): about an order of magnitude less active; activity relative to teixobactin (gram-positive bacteria): about an order of magnitude less active
CC[C@H](C)[C@H](NC(=O)[C@@H](Cc1ccccc1)NC)C(=O)N[C@@H](CO)C(=O)N[C@H](CCC(N)=O)C(=O)N[C@@H](C(=O)N[C@H](C(=O)N[C@@H](CO)C(=O)N[C@H]1C(=O)N[C@@H](C)C(=O)N[C@@H](CCCCN)C(=O)N[C@@H]([C@@H](C)CC)C(=O)O[C@H]1C)[C@@H](C)CC)[C@@H](C)CC [Lys10-teixobactin] (H-[dNMeF]IS[dQ][d(aIle)]IS[dT]AKI; ester 8-C (inferred); N-terminus assumed) | 0.5 µg/mL (≈ 0.411 µM) | 0.25 µg/mL (≈ 0.206 µM) | – | >32 µg/mL | 1 µg/mL (≈ 0.822 µM) | 0.5 µg/mL (≈ 0.411 µM) | – | – | – | – | MIC values, times lower than Arg10-teixobactin ([3]; gram-positive bacteria, relative to Arg10-teixobactin): 2–4 times
CN[C@H](CC(C)C)C(=O)N[C@H]1C(=O)N[C@@H](CC(N)=O)C(=O)N[C@H]2C(=O)N[C@H]3C(=O)N[C@H](C(=O)N[C@H](C(=O)O)c4cc(O)cc(O)c4-c4cc3ccc4O)[C@H](O)c3ccc(c(Cl)c3)Oc3cc2cc(c3O[C@@H]2O[C@H](CO)[C@@H](O)[C@H](O)[C@H]2O[C@H]2C[C@](C)(N)[C@H](O)[C@H](C)O2)Oc2ccc(cc2Cl)[C@H]1O [vancomycin, reference compound] | – | – | – | – | – | – | – | – | – | – | MIC ([6]; Bacillus subtilis, ATCC6051): 1 µg/mL (≈ 0.69 µM)
ent-Arg10-teixobactin | – | – | – | – | – | – | 1 µg/mL | 2 µg/mL | 4 µg/mL | 2 µg/mL | activity relative to Arg10-teixobactin ([3]; gram-positive bacteria, MIC): comparable activity
seco-Arg10-teixobactin | – | – | > 32 µg/mL | – | – | – | >32 µg/mL | >32 µg/mL | >32 µg/mL | >32 µg/mL | –
teixobactin | – | – | – | – | – | – | – | – | – | – | MIC (various Streptococcus): 0.02 to 0.15 µg/mL; MIC (E. coli): 25 µg/mL

Reference: article PMC5283680 (ACS chemical biology, 2016)
